From patent publication US20240425457A1, “COMPOSITIONS AND METHODS FOR SUPPRESSING AND/OR TREATING METABOLIC DISEASES AND/OR A CLINICAL CONDITION THEREOF” (CK Biotech Inc., priority 2018, published 2024)
Entries after “also recorded” stand apart in the source; their conditions may differ. Like-named read-outs stand apart in the source and are kept apart here. Values belong to the compound of their own block, whether it stands above or below them.

How the values were obtained:
CXXC5-DVL interaction [1] = molecular target: T1, CXXC5-DVL interaction (Homo sapiens, UniProt O14640); experiment: in vitro CXXC5-DVL PPI inhibition screening assay (FITC-tagged PTD-DBMP on DVL-PDZ, fluorescence); type: binding; settings: for inhibition at 30 µM: read-out: CXXC5-DVL inhibitory activity (%)
T1 sequence (O14640 251-323 limits assumed): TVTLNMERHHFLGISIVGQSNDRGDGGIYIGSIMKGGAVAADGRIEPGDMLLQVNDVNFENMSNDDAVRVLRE
Procedure: Screening for compounds that inhibit the CXXC5-DVL interaction. […] CELL. DEATH. DIFFER. […] After the addition of 10 μM FITC-tagged PTD-DBMP to each well, each compound in the chemical library or control (DMSO) was treated to the well at a final concentration of 30 μM. The fluorescence intensity was measured using a Fluorstar Optima microplate reader (BGM Lab Technologie, Ortenberg, Germany) and normalized as follows: “(‘compounds-treated group’−‘blank’)/(‘DMSO-treated control’−‘blank’)*100”.

CXXC5-DVL interaction [2] = molecular target: T1, CXXC5-DVL interaction; experiment: Dvl-CXXC5 in vitro binding assay, (PTD-DBMP)-(PZD-DVL), concentration dependent; settings: FIG. 33A-33C; unit inferred; read-out: IC50, in vitro (PTD-DBMP)-(PZD-DVL) binding analyses
HFD-induced obese mice = experiment: HFD-induced obese mice, oral administration during 16 weeks of HFD; type: in vivo; settings: HFD 16 weeks, 25 mpk oral
Procedure: Anti-obesity effects of […], a small molecule […] inhibitor. Referring now to FIG. 34, C57BL/6N mice were fed HFD for 16 weeks with or without oral administration of 25 mpk […] or Orlistat. Orlistat is an anti-obesity drug that is thought to act by limiting the absorption of fats from the diet (e.g., a lipase inhibitor). […] Referring now to FIG. 35, The C57BL/6N mice were grown with HFD for 16 weeks with or without oral administration of 25 mpk of […], […], and I3O. […] The increase in adipocyte cell sizes and enhancement of inflammation (evaluated by crown like structures; blue; FIG. 35B) were suppressed by treatment with […] in the HFD mice.

MCD-induced NASH mice = experiment: MCD diet-induced NASH mice; type: in vivo; settings: MCD diet 7 weeks, then 25 mg/kg daily oral gavage 3 weeks
Procedure: NASH study. Eight-week-old wild-type male C57BL/6N mice (KOATECH, Seoul, Korea) were fed on the methionine-choline deficient (MCD) diet for 7 weeks, followed by treatment with vehicle, A3334, A3051, or I3O of (25 mg kg^−1) sitagliptin (25 mg kg^−1) for another 3 weeks via daily oral gavage.
Collagen staining. 4 µm-liver tissues sections were stained using two common collagen staining methods. For Masson's trichrome staining, slides were fixed in Bouin's solution for 1 h. After incubation in Weigert's iron hematoxylin solution for 10 min, the slides were stained with Biebrich Scarlet-Acid Fuchsin and Aniline blue for 5 min. The collagen fibers were stained blue and the nuclei were stained black. For picrosirius red staining, sections were stained with Weigert's solution for 8 min and picrosirius red for 1 h. The collagen fibers were stained red with blue nuclei.

HFD-fed mice = experiment: HFD-induced obesity/diabetes mice, 5-day oral courses at weeks 8/9 and 12; type: in vivo; settings: HFD mice; for fasting glucose level / persistence of fasting glucose control after end of treatment: p.o. daily 5 days at weeks 8/9 and 12; for fasting glucose level: A3334, A3051, I3O 25, sitagliptin 50, metformin 100 mg/kg; for levels of GTT/ITT, total cholesterol, fasting glucose, triglyceride, FFAs in serum: A3334 25, metformin 100, sitagliptin 50 mpk (FIG. 38B-38F); for persistence of fasting glucose control after end of treatment: A3334 25, sitagliptin 50, metformin 100 mg/kg
Description: Animals. The generation of Cxxc5^−/− mice has been described previously. Cxxc5 heterozygous mice were intercrossed for four generations to obtain littermate wild-type and Cxxc5^−/− mice and were maintained on a C57BL/6 background. Six-week-old Cxxc5^+/+ and Cxxc5^−/− mice were fed HFD for 8 weeks. Wild-type male C57BL/6 mice (KOATECH, Seoul, Korea) were fed HFD consisting of 60% calories from fat (Research Diet, D12492) for 8 weeks. To validate that the insulin resistance mouse model was successfully established, fasting glucose levels were assessed with a One Touch Ultra glucometer (LifeScan). Subsequently, each HFD-fed mouse with a fasting glucose level higher than 16.7 mmol/L was orally administered A3334 (25 mg kg^−1), sitagliptin (50 mg kg^−1), or metformin (100 mg kg^−1) each day for 5 days at weeks 8 and 12. After the removal of the drugs, mice were maintained for 3 weeks on the HFD. To monitor pancreas regeneration, six-week-old Cxxc5^+/+ and Cxxc5^−/− mice were fed an HFD as above. After dietary treatment for 4 weeks, the mice were intraperitoneally injected with STZ (50 mg/kg/d) for 1 week and the control group were injected with saline. After 2 weeks, Cxxc5^+/+ mice were administered A3334 (25 mg kg^−1) and sitagliptin (50 mg kg^−1) per day by oral gavage for 4 weeks. For GTT or ITT, mice were injected with D-glucose (1.5 g/kg body weight) after overnight starvation or human insulin (0.75 units/kg body weight) after 4 h starvation, respectively. Tail blood was drawn at 0, 15, 30, 60, 120, 180 min intervals and blood glucose level was measured with a One Touch Ultra glucometer. All mice were maintained under temperature-controlled and light-controlled (standard 12 h light/dark cycle) conditions and provided with food and water ad libitum. All protocols were reviewed and approved by the Institutional Review Board of Severance Hospital, Yonsei University College of Medicine (09-013).
Blood chemistry. Total blood of mice was collected by cardiac puncture after fasting. The blood was allowed to clot for 30 min and was then centrifuged for 10 min at 1,000×g to obtain supernatant to measure metabolic parameters. ELISA assay kits were used to assess serum insulin (Millipore), serum FFA (Cayman Chemical), serum adiponectin (ABclonal). The insulin function test was evaluated by HOMA-IR and was calculated as fasting plasma glucose (m mol/l)×fasting serum insulin (mU/l)/22.5. Serum chemistry variables included total cholesterol, HDL-cholesterol, glucose, TG, ALT, AST, ALP, Ca, and Mg concentration. The calibration of serum parameters was performed using the quality control card supplied with the FUJI DRI-CHEM slides whenever slides from a new lot were used. […]
Hematoxylin and eosin (H&E) staining. Dissected tissues were fixed in 4% neutral paraformaldehyde and embedded in paraffin. The paraffin sections were cut at a thickness of 4 μm and subjected to H&E staining. The adipocyte cell size was measured in 20 randomly chosen microscopic areas from 3 independent animals using a Nikon bright-field optical microscope (Nikon TE-2000U). The average adipocyte size was determined using Image J software. […]
Metabolic monitoring and body composition. Metabolic performance (energy intake and energy expenditure) was studied using a PHENOMASTER automated combined indirect calorimetry system (TSE system GmBH). The mice were first acclimated for 24 h in a metabolic chamber and were provided with food and water. They were then subsequently evaluated for 3 days to measure oxygen consumption (VO2), carbon dioxide production (VCO2), ambulatory counts, and respiratory exchange ratio. An LF50 body composition analyzer (Bruker) was used to determine body composition (lean body mass and total body fat) of the mice. The temperature for these studies remained at 22° C., with a 12 h light/dark cycle. Standard in-house software was used for energy expenditure.
Quantitative real-time polymerase chain reaction (PCR). […]

Wnt/β-catenin signaling = Wnt/β-catenin signaling (TOPFlash) reporter luciferase assay in HEK293-TOP cells; type: cell-based
Procedure: Luciferase reporter assay. HEK293-TOP cells were seeded in 24-well plates. Cells were treated with A3334 at a concentration of 1, 5, and 10 μM for 24 h. Total cell lysates were extracted with 35 μl of 5× Reporter Lysis Buffer per well according to the manufacturer's instructions (Promega). A total of 35 μl of luciferin was added and luciferase activity was measured using a Fluorstar Optima microplate reader.
Wnt/β-catenin signaling reporter luciferase assay. HEK293-TOP cells were seeded were seeded in 96-well plates at a density of 2.5×10^4 cells per well. Cells were treated with individual chemicals at a concentration of 1, 5, 10 µM for 24 h. Total cell lysates were extracted with 25 µl of 5× Reporter Lysis Buffer per well according to the manufacturer's instruction (Promega, Madison, WI). Luciferin (25 µl) was added and luciferase activity was measured using FLUOSTAR (BMG labtech, Offenburg, Germany).

inhibition at 30 µM (CXXC5-DVL interaction [1]; 30 μM): 90%
Compound: O=c1cc(O)cc(/C=C/c2ccc(O)c(O)c2)o1 [Compound 11]

inhibition at 30 µM (CXXC5-DVL interaction [1]; 30 μM): 85.2%
Compound: O=c1c(O)c(-c2cc(O)c(O)c(O)c2)oc2cc(O)cc(O)c12 [Compound 13]

inhibition at 30 µM (CXXC5-DVL interaction [1]; 30 μM): 85.2%
Compound: CC(N)(Cc1ccc(O)c(O)c1)C(=O)O (stereo not shown) [Compound 14]

inhibition at 30 µM (CXXC5-DVL interaction [1]; 30 μM): 85.4%
Compound: O=c1c(O)c(-c2ccc(O)cc2O)oc2cc(O)cc(O)c12 [Compound 15]

inhibition at 30 µM (CXXC5-DVL interaction [1]): 87.9%
Compound: CN(C)c1ccc(O)c2c1C[C@H]1C[C@H]3[C@H](N(C)C)C(O)=C(C(N)=O)C(=O)[C@@]3(O)C(O)=C1C2=O [Compound 16]

inhibition at 30 µM (CXXC5-DVL interaction [1]; 30 μM): 85.2%
Compound: Oc1cc(O)cc(/C=C/c2ccc(O)c(O)c2)c1 [Compound 17]

inhibition at 30 µM (CXXC5-DVL interaction [1]; 30 μM): 86.8%
Compound: O=C(OCCN1CCOCC1)C1(c2ccccc2)CCCCC1 [Compound 18]

The next lines start with the compound.

Compound: COc1ccc(C)cc1/N=N/c1ccc(O)c2nc(/C=N/O)ccc12 [Compound 1]
inhibition at 30 µM (CXXC5-DVL interaction [1]; 30 μM): 85.2%

Compound: COc1ccc(C2CC(C(F)(F)F)n3ncc(C(=O)O)c3N2)cc1OC (stereo not shown) [Compound 2]
inhibition at 30 µM (CXXC5-DVL interaction [1]; 30 μM): 90.6%

Compound: Cc1cc(C)c2c(O)nc(SCC(=O)c3ccc(O)c(O)c3)nc2n1 [Compound 3]
inhibition at 30 µM (CXXC5-DVL interaction [1]; 30 μM): 88.2%

Compound: COC(=O)C1=C(C)N/C(=C/c2cc(C)n(-c3ccccc3F)c2C)C1=O [Compound 4]
inhibition at 30 µM (CXXC5-DVL interaction [1]; 30 μM): 87.6%

Compound: O=C(O)C1Sc2[nH]c(=O)sc2C2c3cc(Br)cc(Br)c3OC(=O)C12 (stereo not shown) [Compound 5]
inhibition at 30 µM (CXXC5-DVL interaction [1]; 30 μM): 90.5%

Compound: CCN(CC)S(=O)(=O)c1ccc(OC)c(Nc2cc(-c3ccccc3)nc(C)n2)c1 [Compound 6]
inhibition at 30 µM (CXXC5-DVL interaction [1]; 30 μM): 58.2%

Compound: COc1ccc(C2CC(=O)C3=C(C2)Nc2onc(C)c2C3c2ccc(O)c(O)c2)cc1OC (stereo not shown) [Compound 7]
inhibition at 30 µM (CXXC5-DVL interaction [1]; 30 μM): 90.9%

Compound: CN1CCc2cc(O)cc3c2[C@H]1Cc1ccc(O)c(O)c1-3 [Compound 9]
inhibition at 30 µM (CXXC5-DVL interaction [1]; 30 μM): 89.4%

Compound: NC(Cc1cc(O)c(O)cc1O)C(=O)O (stereo not shown) [Compound 10]
inhibition at 30 µM (CXXC5-DVL interaction [1]): 90.3%

Compound: O=C1Nc2ccccc2/C1=C1/Nc2ccccc2/C1=N\O [Compound I3O, Indirubin-3′-oxime, reference compound]
IC50 (CXXC5-DVL interaction [2]): 98.9 nM | adipocyte cell size and inflammation (crown like structures) (HFD-induced obese mice): showed reduction in adipocyte size and anti-inflammatory effects, but those effects were lower when compared to that of the A3334 treatment | hepatosteatosis (H&E) (MCD-induced NASH mice): also reduced hepatosteatosis, but revealed only marginal effects compared to A3334 | fasting glucose level (HFD-fed mice): also reduced fasting glucose. However, effects of A3051 and I3O is similar to or little bit weaker than SITA | Wnt/β-catenin (TOPFlash) reporter activity (Wnt/β-catenin signaling): showed effectiveness in the activation of Wnt/β-catenin pathway | inhibition of CXXC5-DVL interaction (in words) (CXXC5-DVL interaction [1]): identified as initial hits | inhibition at 30 µM (CXXC5-DVL interaction [1]; 30 μM): 89% | inhibition of CXXC5-DVL interaction (in words) (CXXC5-DVL interaction [1]; listed as #12): repeatedly identified as CXXC5-DVL inhibitors

Compound: CN(C)C(=N)N=C(N)N [metformin, reference compound]
serum ALT, AST, FFA (and TG) (HFD-fed mice): increased by metformin | levels of GTT/ITT, total cholesterol, fasting glucose, triglyceride, FFAs in serum (HFD-fed mice): weaker than those of A3333 | persistence of fasting glucose control after end of treatment (HFD-fed mice): this prolonged effect was not shown; also recorded: showed an increased fasting glucose level after their second application | fasting glucose level (HFD-fed mice): reduced similarly by treatment with all of these compounds at initial applications

Compound: N[C@@H](CC(=O)N1CCn2c(nnc2C(F)(F)F)C1)Cc1cc(F)c(F)cc1F [sitagliptin, reference compound]
hepatosteatosis (H&E) (MCD-induced NASH mice): also reduced hepatosteatosis, but revealed only marginal effects compared to A3334 | mRNA of M1 and M2 macrophage marker genes in epiWAT (HFD-fed mice): did not significantly change the expression of inflammation or the Wnt/β-catenin signaling target genes | serum ALT, AST, FFA (and TG) (HFD-fed mice): weakly reduced by SITA even at a higher concentration | levels of GTT/ITT, total cholesterol, fasting glucose, triglyceride, FFAs in serum (HFD-fed mice): weaker than those of A3333 | hepatic steatosis (lipid droplets, fatty liver, hepatic TG) (HFD-fed mice; H&E, Oil Red O): exhibited only a marginal effect | Wnt/β-catenin target genes and lipogenesis/inflammation genes in white adipose tissue (HFD-fed mice; mRNA): did not significantly change the expression of inflammation or the Wnt/β-catenin signaling target genes | lipogenesis and gluconeogenesis genes in liver (HFD-fed mice; mRNA): reduced by both A3334 and SITA, but A3334 showed better effectiveness | persistence of fasting glucose control after end of treatment (HFD-fed mice): this prolonged effect was not shown; also recorded: showed an increased fasting glucose level after their second application | fasting glucose level (HFD-fed mice): reduced similarly by treatment with all of these compounds at initial applications
